# Literature values in US20110200683A1, “Hydrogen peroxide solution producing first aid substance, packaging, and treatment” (Piper Medical, Inc, priority 2010, published 2011).
# How the values were obtained:
# [1] = in water
# [2] = temperatures above 50° C
smiles,measurement,setting,value
NC(N)=O.OO [percarbamide],solubility sufficient to create a hydrogen peroxide concentration,[1],≥ 3%
same,stability,[2],relatively stable
